Reference: US20230146455A1, “TREATMENT OF INFLAMMATORY DISEASES WITH PEPTIDES AND PHARMACEUTICAL COMPOSITIONS” (Yuyu Pharma, Inc., priority 2020, published 2023)
Values joined by “and” are separate entries in the source; they are usually repeats but may differ in a detail not shown here. Identical values can stand only once. Where a SMILES comes first, the peptide text is derived from it. [ ]: non-standard residue; d: D form. Hyp = O=C(O)[C@@H]1C[C@@H](O)CN1

Test system: IFN-gamma
Assay: Example 9 Luminex, LPS hPBMCs: IFN-gamma
Format: cell-based, human
Description: Treatment Human PBMCs were pretreated with YY-101, YDE-011 and YDE-043 or reference compound; Xiidra® at various concentration (ranging from 1 nM to 100 uM) for 2 h before stimulation. An equal volume of 0.5% DMSO was used as a vehicle control. Then, the cells were treated with LPS at 5 ug/ml. The supernatants from treated cells were harvested at 24 h and placed in a 96 well for Luminex cytokine & chemokine profiling using a Luminex 200 multiplex assay (Luminex; R&D system, USA).
The main study arm with triplicate wells per group in a 24-well plate: • 1. Blank • 2. PBMC: 0.5% DMSO • 3. PBMC+LPS (5 ug/ml) • 4. PBMC+YY-101 100 uM • 5. PBMC+YY-101 10 uM • 6. PBMC+YY-101 1 uM • 7. PBMC+YY-101 0.1 uM • 8. PBMC+YY-101 0.01 uM • 9. PBMC+LPS (5 ug/ml)+Xiidra®100 uM • 10. PBMC+LPS (5 ug/ml)+Xiidra® 10 uM • 11. PBMC+LPS (5 ug/ml)+Xiidra® 1 uM • 12. PBMC+LPS (5 ug/ml)+Xiidra®0.1 uM • 13. PBMC+LPS (5 ug/ml)+Xiidra®0.01 uM • 14. PBMC+LPS (5 ug/ml)+Xiidra®0.001 uM • 15. PBMC+LPS (5 ug/ml)+YY-101 100 uM • 16. PBMC+LPS (5 ug/ml)+YY-101 10 uM • 17. PBMC+LPS (5 ug/ml)+YY-101 1 uM • 18. PBMC+LPS (5 ug/ml)+YY-101 0.1 uM • 19. PBMC+LPS (5 ug/ml)+YY-101 0.01 uM • 20. PBMC+LPS (5 ug/ml)+YY-101 0.001 uM • 21. PBMC+LPS (5 ug/ml)+YDE-011 100 uM • 22. PBMC+LPS (5 ug/ml)+YDE-011 10 uM • 23. PBMC+LPS (5 ug/ml)+YDE-011 1 uM • 24. PBMC+LPS (5 ug/ml)+YDE-011 0.1 uM • 25. PBMC+LPS (5 ug/ml)+YDE-011 0.01 uM • 26. PBMC+LPS (5 ug/ml)+YDE-011 0.001 uM • 27. PBMC+LPS (5 ug/ml)+YDE-043 100 uM • 28. PBMC+LPS (5 ug/ml)+YDE-043 10 uM • 29. PBMC+LPS (5 ug/ml)+YDE-043 1 uM • 30. PBMC+LPS (5 ug/ml)+YDE-043 0.1 uM • 31. PBMC+LPS (5 ug/ml)+YDE-043 0.01 uM • 32. PBMC+LPS (5 ug/ml)+YDE-043 0.001 uM
Multiplex assay was used to measure 30 cytokines and chemokines. The 1:2, 1:10 and 1:200 diluted cell supernatant and serial dilution of the standard were dispensed into a 96 well plate at 50 ul/well. Then, the pre-mixed cocktail of antibody-coated magnetic beads was dispensed at 50 ul/well and incubated at room temperature for 2 h in a horizontal orbital microplate shaker at 800±500 rpm. The beads were washed using a magnetic device to prevent loss. The biotin-antibody was dispensed in 50 ul of each well and incubated at room temperature for 1 h in a shaker at 800±500 rpm. After washing, streptavidin-PE was added at 50 ul/well and incubated at room temperature for 30 min in a shaker under the same conditions. Finally, after washing, wash buffer (100 ul/well) was added to the plate and incubated in a shaker for 2 min. The Luminex™ 200 setting were set according to the manufacturer's protocol. The data was calculated with a standard five-parameter logistic nonlinear regression analysis of the data (xPonent software 4.2, USA). The levels of cytokine/chemokine are normalized to the live cell counts (1×10^5 cells/mL) and presented as concentrations per mL (pg/mL or ng/mL).

[1] = PBMC + LPS(5 ug/ml) + test article 0.001 uM, Mean
[2] = PBMC + LPS(5 ug/ml) + test article 0.001 uM, single replicates
[3] = PBMC + LPS(5 ug/ml) + test article 0.01 uM, Mean
[4] = PBMC + LPS(5 ug/ml) + test article 0.01 uM, single replicates
[5] = PBMC + LPS(5 ug/ml) + test article 0.1 uM, Mean
[6] = PBMC + LPS(5 ug/ml) + test article 0.1 uM, single replicates
[7] = PBMC + LPS(5 ug/ml) + test article 1 uM, Mean
[8] = PBMC + LPS(5 ug/ml) + test article 1 uM, single replicates
[9] = PBMC + LPS(5 ug/ml) + test article 10 uM, Mean
[10] = PBMC + LPS(5 ug/ml) + test article 10 uM, single replicates
[11] = PBMC + LPS(5 ug/ml) + test article 100 uM, Mean
[12] = PBMC + LPS(5 ug/ml) + test article 100 uM, single replicates

CC(C)C[C@H](NC(=O)[C@H](CCC(N)=O)NC(=O)CNC(=O)[C@@H]1C[C@@H](O)CN1)C(=O)NCC(=O)O [YDE-043] (H-[Hyp]GQLG-OH; N-terminus and C-terminus assumed)
Concentration (IFN-gamma) [1]: 861.2 pg/mL
conc/live cell (IFN-gamma) [1]: 174.1 pg/10^5
Concentration (IFN-gamma) [2]: 863.3 pg/mL and 945.2 pg/mL and 774.9 pg/mL
conc/live cell (IFN-gamma) [2]: 196.2 pg/10^5 and 157.5 pg/10^5 and 168.5 pg/10^5
Concentration (IFN-gamma) [3]: 841.6 pg/mL
conc/live cell (IFN-gamma) [3]: 161.9 pg/10^5
Concentration (IFN-gamma) [4]: 857.6 pg/mL and 792.3 pg/mL and 874.8 pg/mL
conc/live cell (IFN-gamma) [4]: 190.6 pg/10^5 and 120.0 pg/10^5 and 175.0 pg/10^5
Concentration (IFN-gamma) [5]: 797.8 pg/mL
conc/live cell (IFN-gamma) [5]: 148.8 pg/10^5
Concentration (IFN-gamma) [6]: 892.0 pg/mL and 628.5 pg/mL and 872.9 pg/mL
conc/live cell (IFN-gamma) [6]: 178.4 pg/10^5 and 112.2 pg/10^5 and 155.9 pg/10^5
Concentration (IFN-gamma) [7]: 852.5 pg/mL
conc/live cell (IFN-gamma) [7]: 162.3 pg/10^5
Concentration (IFN-gamma) [8]: 734.2 pg/mL and 834.6 pg/mL and 988.7 pg/mL
conc/live cell (IFN-gamma) [8]: 126.6 pg/10^5 and 173.9 pg/10^5 and 186.5 pg/10^5
Concentration (IFN-gamma) [9]: 840.3 pg/mL
conc/live cell (IFN-gamma) [9]: 155.7 pg/10^5
Concentration (IFN-gamma) [10]: 828.9 pg/mL and 826.9 pg/mL and 865.3 pg/mL
conc/live cell (IFN-gamma) [10]: 159.4 pg/10^5 and 153.1 pg/10^5 and 154.5 pg/10^5
Concentration (IFN-gamma) [11]: 462.3 pg/mL
conc/live cell (IFN-gamma) [11]: 73.4 pg/10^5
Concentration (IFN-gamma) [12]: 480.6 pg/mL and 444.0 pg/mL
conc/live cell (IFN-gamma) [12]: 77.5 pg/10^5 and 69.4 pg/10^5
